Assay results taken from patent US20220257706A1, “EPIDERMAL GROWTH FACTOR RECEPTOR (EGFR) LIGANDS” (NANYANG TECHNOLOGICAL UNIVERSITY, priority 2019, published 2022).

Assays:
HaCaT cells [1] = type: cell-based, human
Experimental: (§1) HaCaT (human keratinocyte), HUVEC-CS (endothelial cells) cells were cultured in Dulbecco's modification of Eagle's medium (DMEM) supplemented with 10% fetal bovine serum and 100 U/mL of penicillin and streptomycin. Normal Human Epidermal Keratinocytes adult purchased from Lifeline® cell technology were cultured in Lifeline® DermaLife K Medium. They were grown in a 5% CO2 humidified incubator at 37° C. HaCaT cells were stably transfected with pGL4.33[luc2P/SRE/Hygro] (Promega) and selected using 250 μg/mL hygromycin. Stable HaCaT cells expressing SRE luciferase reporter were maintained with 250 μg/mL hygromycin.
Cell proliferation was determined using crystal violet staining. […] 3417-Da-peptide aB1 is a CRP isolated from Achyranthes bidentata with the amino acid sequence […] (SEQ ID NO:11). Crystal violet staining was performed as previously described. Briefly, after the incubation period, the wells were fixed with 4% buffered paraformaldehyde for 20 min. The cells were then stained with 0.25% crystal violet in 20% methanol for 15 min. The excess crystal violet stain was rinsed with distilled water for 4-5 times and air-dried. Glacial acetic acid (10%) in Milli-Q water was added to extract the crystal violet stain. The absorbance was then measured at 595 nm using a microplate reader (Tecan Infinite® 200 Pro, Switzerland).

[2] = Acid stability (0.2 M HCl, 37° C.)
Experimental: (§3) Samples were collected at various time points.
(§4) All collected samples from various stability assays were analyzed by RP-HPLC with a linear gradient of mobile phase A (0.05% TFA/H2O) and mobile phase B (0.05% TFA/ACN) on aeris peptide XB-C18 column (Phenomenex, US). The resulting peaks were collected and identified by MALDI-TOF MS. The results were expressed as percentage of initial concentration using the peak area of the HPLC profile.

C57BL/6 mice = assay: Full-thickness splinted excisional wound healing in C57BL/6 mice; type: in vivo, mouse; details: topical, three consecutive days; bleogen pB1 10 nmol/wound, EGF 1 nmol/wound; vs saline
Experimental: C57BL/6 mice were obtained from Vital Rital Laboratories (Beijing, China). […] All experiments were approved and performed in accordance with the institutional guidelines of the Experimental Animal Center of the Chinese Academy of Medical Science (Beijing, China).
(§2) Full-thickness 5-mm splinted excisional wounding of mice was performed. Briefly, mice were anesthetized using an intraperitoneal injection of sodium pentobarbital (50 mg kg^−1). The hair of the back was shaved with an electric clipper followed by a depilatory cream. Using a 5-mm-diameter sterile biopsy punch, symmetrical full-thickness excisional wounds were created. Splints were placed around the wound using adhesive glue and secured with four interrupted sutures. The wounds and splints were covered with Tegaderm (3M, US). At indicated days within the 14 days post-injury course, wound diameters were measured. The size of wound was calculated from the average of two diameter measurements along the x and y axis.
Full-thickness 5 mm splinted excisional wounding of mice was performed on C57BL/6 mice as described above.

[3] = tested on: STZ-induced diabetic C57BL/6 mice; assay: Full-thickness splinted excisional wound healing in streptozotocin-induced diabetic C57BL/6 mice; type: in vivo, mouse; details: 1 nmol/wound topical, five consecutive days
Experimental: as §2
Diabetes was induced into C57BL/6 mice by two intraperitoneal injection (80 mg/kg) of STZ at day 1 and 5. Starting from day 8, blood glucose was monitored regularly for two weeks. […] Blood glucose was also monitored at day 14 post-injury to ensure the mice are diabetic.

[4] = Heat stability (100° C., RP-HPLC); type: physicochemical; details: 100° C.; read-out: calculated t1/2, heat treatment
Experimental: Samples were collected at various time points (0, 30, 60, and 120 min).

[5] = tested on: serum response element (SRE); assay: SRE luciferase reporter assay in stable HaCaT cells; type: cell-based, human; details: 6 h incubation
Experimental: as §1
Briefly, the cells were cultured in a white 96-well plates to achieve 90% confluency. […] The luciferase assay was performed using the ONE-Glo EX Luciferase Assay System (Promega, US) as per the manufacturer's instructions. Luminescence was measured using a microplate reader (Tecan Infinite® 200 Pro, Switzerland).

newborn ICR mice = assay: Newborn mice model for incisor eruption; type: in vivo, mouse; details: 3 mg/kg subcutaneous, five consecutive days; saline control 153 h
Experimental: ICR mice were obtained from Vital Rital Laboratories (Beijing, China). […] All experiments were approved and performed in accordance with the institutional guidelines of the Experimental Animal Center of the Chinese Academy of Medical Science (Beijing, China). Subcutaneous injections were made for five consecutive days in the nape of the neck of the newborn mice starting from the day of birth (day 0). […] Incisor eruption was recorded daily by visual inspection. Incisor eruption was defined as the time at which a given tooth first pierced the oral epithelium.

HaCaT cells [6] = assay: Cell migration scratch assay; type: cell-based, human; details: data not shown
Experimental: Cell migration was monitored using the scratch assay. Briefly, HaCaT cells were seeded into 2 well silicone inserts with a defined gap of 500 μm (ibidi, Germany). […] After incubation for 8 h, the wells were photographed using inverted phase-contrast microscope. Images were analyzed for the percentage of cell-free area using the Wimasis image analysis platform.

HUVEC-CS cells = assay: Endothelial tube formation assay; type: cell-based; details: data not shown
Experimental: Endothelial tube formation assay was performed using a μ-slide (ibidi, Germany). Briefly, 10 μL of gel matrix (BD Matrigel™ Basement Membrane Matrix) was casted onto each μ-slide well and left to solidify. […] After incubation for 2 h, the wells were photographed using inverted phase-contrast microscope. Images were analyzed for the numbering of branching points using the Wimasis image analysis platform.

[7] = tested on: pepsin, trypsin, pronase, human neutrophil elastase; assay: Proteolytic stability against a panel of proteases; details: human
Experimental: as §3, §4

EGFR = EGFR (Homo sapiens, UniProt P00533); assay: Immunoprecipitation / western blot of EGFR tyrosine phosphorylation in HaCaT cells; type: cell-based; design: endogenous in cells; host or cells: HaCaT; details: 5 μM
Experimental: Immunoprecipitation was performed using EGFR (D38B1) rabbit monoclonal antibodies conjugated to magnetic beads (Cell Signaling, US). Briefly, the magnetic beads were washed with PBS three times and 50 μg HaCaT cell lysate was added to each tube and allowed to incubate overnight at 4° C. with rotation. After incubation, the magnetic beads were washed five times with PBS. A 6× loading dye with β-mercaptoethanol was added to the resin and heated for 10 min at 85° C. The resultant mixture was centrifuged at 14000 g×1 min and resolved using 10% SDS-PAGE at a 100 V constant for 120 min. Blot transfer was performed on a PVDF membrane (GE healthcare, Sweden) at 250 mA for 120 min on ice. The blot was blocked with 5% BSA TBST before incubating overnight at 4° C. with anti-phosphotyrosine-HRP (R&D systems, US) or anti-EGFR anti-rabbit antibody (1:1000 in 5% BSA TBST; Cell Signaling, US). After incubation, the membrane was washed with TBST at room temperature for three times at 10 min each. The blot was then incubated with secondary anti-rabbit horseradish peroxidase (HRP) (1:5000 in 5% BSA TBST) and was incubated for another 1 h at room temperature. The blot was washed five times 10 min each with TBST at room temperature before the addition of chemiluminescence substrate (Advansta, US) and exposure on X-ray film (Fujifilm, Japan).

Sequence of EGFR (P00533 25-1210): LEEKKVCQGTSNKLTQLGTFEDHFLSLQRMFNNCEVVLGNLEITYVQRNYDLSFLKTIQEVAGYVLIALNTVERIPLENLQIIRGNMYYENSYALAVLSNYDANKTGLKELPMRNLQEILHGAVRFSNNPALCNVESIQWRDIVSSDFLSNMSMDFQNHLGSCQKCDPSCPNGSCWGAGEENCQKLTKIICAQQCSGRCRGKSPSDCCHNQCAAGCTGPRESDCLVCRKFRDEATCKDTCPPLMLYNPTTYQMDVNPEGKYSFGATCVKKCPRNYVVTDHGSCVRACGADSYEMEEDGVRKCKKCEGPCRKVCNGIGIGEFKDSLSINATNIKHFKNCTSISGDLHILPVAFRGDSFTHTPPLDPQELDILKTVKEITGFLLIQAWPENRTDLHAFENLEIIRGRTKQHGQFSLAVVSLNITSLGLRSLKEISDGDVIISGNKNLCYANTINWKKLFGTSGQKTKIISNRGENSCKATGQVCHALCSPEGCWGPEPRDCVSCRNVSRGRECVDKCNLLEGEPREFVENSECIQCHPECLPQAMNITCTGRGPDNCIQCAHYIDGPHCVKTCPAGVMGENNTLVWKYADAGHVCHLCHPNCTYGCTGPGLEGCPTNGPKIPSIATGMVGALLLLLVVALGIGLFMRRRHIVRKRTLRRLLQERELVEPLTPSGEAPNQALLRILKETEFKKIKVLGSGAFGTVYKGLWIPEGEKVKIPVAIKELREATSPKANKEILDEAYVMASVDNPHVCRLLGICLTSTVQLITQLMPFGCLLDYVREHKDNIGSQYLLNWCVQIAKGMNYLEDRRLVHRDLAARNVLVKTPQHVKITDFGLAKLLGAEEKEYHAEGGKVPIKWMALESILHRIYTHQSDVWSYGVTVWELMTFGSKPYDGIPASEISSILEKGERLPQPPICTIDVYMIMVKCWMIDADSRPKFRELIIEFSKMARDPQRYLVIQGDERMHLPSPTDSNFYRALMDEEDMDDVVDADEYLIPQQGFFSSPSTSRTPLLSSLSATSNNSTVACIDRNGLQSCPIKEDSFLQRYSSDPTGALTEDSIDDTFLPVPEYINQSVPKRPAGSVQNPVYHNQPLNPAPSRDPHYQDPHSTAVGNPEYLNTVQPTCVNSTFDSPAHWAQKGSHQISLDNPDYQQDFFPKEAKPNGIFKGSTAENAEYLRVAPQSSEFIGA

Structure (SMILES): CC[C@H](C)[C@@H]1NC(=O)[C@H](CCC(=O)O)NC(=O)[C@H]([C@@H](C)O)NC(=O)[C@@H]2CSSC[C@@H]3NC(=O)[C@H](Cc4ccccc4)NC(=O)[C@H](CC(N)=O)NC(=O)[C@H](CO)NC(=O)[C@H](CSSC[C@H](NC(=O)[C@@H](N)CCC(N)=O)C(=O)N[C@@H](CCCCN)C(=O)N4CCC[C@H]4C(=O)N[C@@H](CC(N)=O)C(=O)NCC(=O)N[C@@H](C)C(=O)N[C@@H](CCCCN)C(=O)N2)NC(=O)[C@H](CSSC[C@@H](C(=O)N[C@@H](C)C(=O)N[C@@H](CC(N)=O)C(=O)N[C@@H](CCCNC(=N)N)C(=O)O)NC(=O)[C@H]([C@@H](C)O)NC(=O)CNC(=O)[C@H](CO)NC(=O)[C@H](CCCCN)NC(=O)[C@H](CCC(N)=O)NC(=O)CNC(=O)[C@H](C)NC(=O)[C@H](Cc2ccc(O)cc2)NC(=O)[C@H](CCCNC(=N)N)NC(=O)[C@H](CC(C)C)NC3=O)NC(=O)[C@@H]2CCCN2C(=O)[C@@H]2CCCN2C(=O)[C@H]([C@@H](C)CC)NC(=O)[C@H](CO)NC1=O [bleogen pB1]
- proliferative activities on HaCaT cells, native versus synthetic (HaCaT cells [1]): identical proliferative activities
- EC50 (HaCaT cells [1]; 72 h): 130 nM
- difference in mitogenic potency between EGF and pB1 (HaCaT cells [1]; HaCaT cell proliferation EC50): 100 fold
- EGFR dependence of proliferative/mitogenic effect (HaCaT cells [1]; co-incubation with EGFR neutralizing antibody (clone LA1)): EGFR-dependent
- half-life at 0.1 M [2]: > 8.33 h
- wound healing, full-thickness excision wound model in C57 mice (C57BL/6 mice): accelerated wound healing from day 3 to day 11
- wound healing rate vs vehicle control in STZ-induced diabetic mice [3]: healed at a significantly faster rate starting from day 4 post-injury
- half-life at 0.1 M [4]: > 8.33 h
- SRE-luciferase activity [5]: dose-dependently, increases the luciferase activity
- time of incisor eruption in newborn mice (newborn ICR mice): 125 h
- HaCaT cell migration (HaCaT cells [6]): accelerate
- endothelial cell tube formation (HUVEC-CS cells): accelerate
- half-life at 0.1 M [7]: > 8.33 h
- phosphorylation of EGFR (EGFR): induces the phosphorylation
